Reference: PMC5564600 (Oncotarget, 2017)

Tests used:
Assay in all cases: biochemical
Format in all cases: binding
panel of 442 kinases [1] = biological target: T1, panel of 442 kinases (Homo sapiens, UniProt O15075); settings: DCAMKL1; for remaining activity at 1 µM: read-out: % of control at 1 µM
T1 construct: purchased Ambit Biosciences (scanMAXX KINOMEscan)

panel of 442 kinases [2] = biological target: T2, panel of 442 kinases (Homo sapiens, UniProt O60331); settings: kinase PIP5K1C; for remaining activity at 1 µM: read-out: % of control at 1 µM
T2 construct: purchased Ambit Biosciences (scanMAXX KINOMEscan)
T2 sequence (O60331 whole entry): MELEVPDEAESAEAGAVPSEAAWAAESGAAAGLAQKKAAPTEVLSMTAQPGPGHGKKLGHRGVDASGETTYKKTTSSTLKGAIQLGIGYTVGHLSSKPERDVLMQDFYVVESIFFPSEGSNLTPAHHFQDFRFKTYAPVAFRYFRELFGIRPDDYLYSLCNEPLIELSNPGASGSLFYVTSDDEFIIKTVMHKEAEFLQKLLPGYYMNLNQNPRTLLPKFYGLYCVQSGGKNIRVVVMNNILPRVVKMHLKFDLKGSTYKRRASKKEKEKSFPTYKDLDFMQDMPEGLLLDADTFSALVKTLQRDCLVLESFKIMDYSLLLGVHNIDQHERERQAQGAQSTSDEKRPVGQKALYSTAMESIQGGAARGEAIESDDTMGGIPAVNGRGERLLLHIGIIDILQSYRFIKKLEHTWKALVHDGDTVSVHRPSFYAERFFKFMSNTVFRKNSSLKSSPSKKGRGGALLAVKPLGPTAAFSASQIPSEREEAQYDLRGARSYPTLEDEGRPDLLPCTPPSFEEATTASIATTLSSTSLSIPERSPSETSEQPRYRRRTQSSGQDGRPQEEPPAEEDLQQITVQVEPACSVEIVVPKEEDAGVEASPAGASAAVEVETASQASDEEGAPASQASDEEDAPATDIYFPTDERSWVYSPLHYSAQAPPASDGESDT

panel of 442 kinases [3] = biological target: T3, panel of 442 kinases (Homo sapiens, UniProt P09619); settings: kinase PDGFRB; for remaining activity at 1 µM: read-out: % of control at 1 µM
T3 construct: purchased Ambit Biosciences (scanMAXX KINOMEscan)
T3 sequence (P09619 33-1106): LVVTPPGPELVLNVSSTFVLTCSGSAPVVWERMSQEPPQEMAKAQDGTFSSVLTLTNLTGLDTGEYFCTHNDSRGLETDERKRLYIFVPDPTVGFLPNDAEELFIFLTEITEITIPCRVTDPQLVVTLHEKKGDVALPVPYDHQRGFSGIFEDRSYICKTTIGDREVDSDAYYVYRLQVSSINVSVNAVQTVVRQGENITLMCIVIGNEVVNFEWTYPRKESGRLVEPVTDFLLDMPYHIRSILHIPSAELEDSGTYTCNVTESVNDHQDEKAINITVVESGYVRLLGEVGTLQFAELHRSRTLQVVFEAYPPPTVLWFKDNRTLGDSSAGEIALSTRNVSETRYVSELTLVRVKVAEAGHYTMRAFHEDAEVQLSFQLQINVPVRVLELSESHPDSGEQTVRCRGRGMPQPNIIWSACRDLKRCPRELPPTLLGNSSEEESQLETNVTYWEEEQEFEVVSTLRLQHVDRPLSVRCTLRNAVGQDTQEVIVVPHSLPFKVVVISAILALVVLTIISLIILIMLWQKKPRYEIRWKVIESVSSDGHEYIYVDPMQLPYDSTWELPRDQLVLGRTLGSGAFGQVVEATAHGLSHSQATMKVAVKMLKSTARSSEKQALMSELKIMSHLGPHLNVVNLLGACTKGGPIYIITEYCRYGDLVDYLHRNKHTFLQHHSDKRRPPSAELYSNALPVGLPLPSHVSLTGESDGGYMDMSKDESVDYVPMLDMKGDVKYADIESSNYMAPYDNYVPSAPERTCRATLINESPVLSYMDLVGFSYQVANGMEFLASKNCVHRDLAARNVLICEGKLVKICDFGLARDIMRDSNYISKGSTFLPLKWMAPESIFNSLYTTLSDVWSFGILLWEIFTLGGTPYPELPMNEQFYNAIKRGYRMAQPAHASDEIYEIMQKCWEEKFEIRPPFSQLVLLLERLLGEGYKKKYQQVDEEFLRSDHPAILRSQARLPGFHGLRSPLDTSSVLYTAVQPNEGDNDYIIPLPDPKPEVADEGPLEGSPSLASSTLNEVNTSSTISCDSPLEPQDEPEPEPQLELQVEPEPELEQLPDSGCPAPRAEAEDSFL

panel of 442 kinases [4] = biological target: T4, panel of 442 kinases (Homo sapiens, UniProt P23443); settings: kinase S6K1; for remaining activity at 1 µM: read-out: S6K1 (% of control at 1 µM)
T4 construct: purchased Ambit Biosciences (scanMAXX KINOMEscan)
T4 sequence (P23443 whole entry): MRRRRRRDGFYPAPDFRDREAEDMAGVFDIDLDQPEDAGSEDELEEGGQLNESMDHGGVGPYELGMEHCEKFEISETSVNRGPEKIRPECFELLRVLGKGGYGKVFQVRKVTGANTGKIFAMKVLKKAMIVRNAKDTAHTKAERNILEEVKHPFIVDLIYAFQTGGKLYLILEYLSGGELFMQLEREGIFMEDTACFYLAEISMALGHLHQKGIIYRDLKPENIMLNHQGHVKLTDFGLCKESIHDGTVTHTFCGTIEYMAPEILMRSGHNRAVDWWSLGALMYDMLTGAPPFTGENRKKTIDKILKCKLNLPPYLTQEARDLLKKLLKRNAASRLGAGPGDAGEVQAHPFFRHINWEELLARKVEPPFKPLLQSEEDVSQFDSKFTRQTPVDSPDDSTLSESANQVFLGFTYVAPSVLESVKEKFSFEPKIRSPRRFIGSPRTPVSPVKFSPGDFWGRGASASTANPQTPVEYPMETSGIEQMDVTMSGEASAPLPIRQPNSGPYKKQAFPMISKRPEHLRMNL

panel of 442 kinases [5] = biological target: T5, panel of 442 kinases (Homo sapiens, UniProt P27037); settings: ACVR2A; for remaining activity at 1 µM: read-out: % of control at 1 µM
T5 construct: purchased Ambit Biosciences (scanMAXX KINOMEscan)
T5 sequence (P27037 20-513): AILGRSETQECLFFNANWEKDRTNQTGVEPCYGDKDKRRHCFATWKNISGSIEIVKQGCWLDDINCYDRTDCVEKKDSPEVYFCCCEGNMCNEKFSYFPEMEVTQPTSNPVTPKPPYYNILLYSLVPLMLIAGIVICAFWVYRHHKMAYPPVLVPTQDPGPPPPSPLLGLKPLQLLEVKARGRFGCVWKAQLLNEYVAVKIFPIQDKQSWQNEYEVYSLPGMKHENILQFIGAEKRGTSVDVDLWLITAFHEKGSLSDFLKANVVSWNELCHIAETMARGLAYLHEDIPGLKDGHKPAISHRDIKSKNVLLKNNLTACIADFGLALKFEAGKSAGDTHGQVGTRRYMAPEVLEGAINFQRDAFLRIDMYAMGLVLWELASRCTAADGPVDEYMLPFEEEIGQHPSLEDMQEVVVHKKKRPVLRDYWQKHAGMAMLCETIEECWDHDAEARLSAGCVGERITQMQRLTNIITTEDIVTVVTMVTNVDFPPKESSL

panel of 442 kinases [6] = biological target: T6, panel of 442 kinases (Homo sapiens, UniProt P78368); settings: CSNK1G2; for remaining activity at 1 µM: read-out: % of control at 1 µM
T6 construct: purchased Ambit Biosciences (scanMAXX KINOMEscan)
T6 sequence (P78368 whole entry): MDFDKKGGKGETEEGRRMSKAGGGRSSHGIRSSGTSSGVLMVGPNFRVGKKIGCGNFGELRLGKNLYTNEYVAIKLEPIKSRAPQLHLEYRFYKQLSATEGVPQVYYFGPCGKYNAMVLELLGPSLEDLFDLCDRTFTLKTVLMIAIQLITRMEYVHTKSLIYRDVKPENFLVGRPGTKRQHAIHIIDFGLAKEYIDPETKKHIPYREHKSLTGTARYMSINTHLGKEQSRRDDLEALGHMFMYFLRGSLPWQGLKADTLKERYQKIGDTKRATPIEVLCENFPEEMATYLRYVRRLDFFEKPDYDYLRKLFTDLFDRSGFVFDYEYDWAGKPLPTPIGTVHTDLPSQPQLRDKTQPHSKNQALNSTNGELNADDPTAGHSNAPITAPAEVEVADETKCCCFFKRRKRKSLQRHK

panel of 442 kinases [7] = biological target: T7, panel of 442 kinases (Homo sapiens, UniProt Q6ZN16); settings: kinase MAP3K15; for remaining activity at 1 µM: read-out: % of control at 1 µM
T7 construct: purchased Ambit Biosciences (scanMAXX KINOMEscan)
T7 sequence (Q6ZN16 1-1313): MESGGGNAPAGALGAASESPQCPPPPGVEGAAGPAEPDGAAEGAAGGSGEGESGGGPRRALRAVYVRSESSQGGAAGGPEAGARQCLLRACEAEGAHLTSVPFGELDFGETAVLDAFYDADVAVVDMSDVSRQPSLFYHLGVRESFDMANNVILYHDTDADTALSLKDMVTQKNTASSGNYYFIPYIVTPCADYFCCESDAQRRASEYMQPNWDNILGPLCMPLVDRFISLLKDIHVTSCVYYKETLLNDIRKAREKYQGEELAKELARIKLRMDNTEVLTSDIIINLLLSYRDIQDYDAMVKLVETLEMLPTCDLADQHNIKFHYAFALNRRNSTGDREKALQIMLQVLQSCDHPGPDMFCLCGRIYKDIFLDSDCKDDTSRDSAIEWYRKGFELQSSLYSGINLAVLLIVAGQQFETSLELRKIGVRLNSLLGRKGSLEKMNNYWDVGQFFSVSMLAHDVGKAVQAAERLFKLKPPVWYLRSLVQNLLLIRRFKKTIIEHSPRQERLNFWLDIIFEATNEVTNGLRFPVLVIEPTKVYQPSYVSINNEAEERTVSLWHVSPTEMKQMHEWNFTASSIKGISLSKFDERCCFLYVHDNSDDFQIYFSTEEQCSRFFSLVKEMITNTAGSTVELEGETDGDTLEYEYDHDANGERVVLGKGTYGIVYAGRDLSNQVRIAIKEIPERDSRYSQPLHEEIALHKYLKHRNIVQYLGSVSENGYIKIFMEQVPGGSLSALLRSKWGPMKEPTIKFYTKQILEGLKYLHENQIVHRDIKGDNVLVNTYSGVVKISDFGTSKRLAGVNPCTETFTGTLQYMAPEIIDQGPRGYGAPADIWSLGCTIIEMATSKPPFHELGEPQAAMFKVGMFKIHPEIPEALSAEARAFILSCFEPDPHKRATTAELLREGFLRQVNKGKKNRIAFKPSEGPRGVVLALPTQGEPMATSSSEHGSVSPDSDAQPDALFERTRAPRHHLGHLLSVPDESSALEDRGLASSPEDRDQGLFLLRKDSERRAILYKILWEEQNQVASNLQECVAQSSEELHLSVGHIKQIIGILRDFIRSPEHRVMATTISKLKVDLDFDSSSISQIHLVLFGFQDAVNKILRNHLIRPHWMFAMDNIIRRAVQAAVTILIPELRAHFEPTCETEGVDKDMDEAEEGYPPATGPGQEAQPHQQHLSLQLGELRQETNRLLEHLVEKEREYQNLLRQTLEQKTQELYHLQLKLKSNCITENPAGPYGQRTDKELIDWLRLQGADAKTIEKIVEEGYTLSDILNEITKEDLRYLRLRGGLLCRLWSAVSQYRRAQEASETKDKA

panel of 442 kinases [8] = biological target: T8, panel of 442 kinases (Homo sapiens, UniProt Q9BZL6); settings: kinase PRKD2; for remaining activity at 1 µM: read-out: PRKD2 (% of control at 1 µM)
T8 construct: purchased Ambit Biosciences (scanMAXX KINOMEscan)
T8 sequence (Q9BZL6 1-878): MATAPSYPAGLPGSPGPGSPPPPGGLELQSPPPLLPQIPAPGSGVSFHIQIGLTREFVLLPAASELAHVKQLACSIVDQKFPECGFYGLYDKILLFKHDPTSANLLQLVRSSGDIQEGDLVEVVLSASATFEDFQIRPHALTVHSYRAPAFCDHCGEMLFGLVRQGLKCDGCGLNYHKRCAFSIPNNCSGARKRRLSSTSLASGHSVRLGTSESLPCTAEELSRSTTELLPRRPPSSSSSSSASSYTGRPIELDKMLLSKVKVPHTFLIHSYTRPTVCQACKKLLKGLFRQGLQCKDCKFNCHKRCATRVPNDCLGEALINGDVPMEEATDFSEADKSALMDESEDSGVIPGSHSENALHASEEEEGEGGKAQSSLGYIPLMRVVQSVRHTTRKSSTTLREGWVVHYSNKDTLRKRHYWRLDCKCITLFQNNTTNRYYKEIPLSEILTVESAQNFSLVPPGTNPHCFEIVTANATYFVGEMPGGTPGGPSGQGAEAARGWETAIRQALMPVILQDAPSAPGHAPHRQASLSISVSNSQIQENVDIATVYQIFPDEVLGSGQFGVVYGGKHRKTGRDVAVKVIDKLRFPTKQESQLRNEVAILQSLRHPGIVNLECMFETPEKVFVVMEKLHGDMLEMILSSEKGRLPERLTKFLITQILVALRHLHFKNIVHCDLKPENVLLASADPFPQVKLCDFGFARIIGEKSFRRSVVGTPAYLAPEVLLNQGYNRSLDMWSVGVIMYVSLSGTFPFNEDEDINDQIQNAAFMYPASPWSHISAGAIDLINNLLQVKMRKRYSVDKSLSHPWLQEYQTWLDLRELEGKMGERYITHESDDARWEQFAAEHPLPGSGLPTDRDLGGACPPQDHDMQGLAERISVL

[9] = 10 µM, read-out: % of control at 10 µM

T1 sequence (O15075 whole entry): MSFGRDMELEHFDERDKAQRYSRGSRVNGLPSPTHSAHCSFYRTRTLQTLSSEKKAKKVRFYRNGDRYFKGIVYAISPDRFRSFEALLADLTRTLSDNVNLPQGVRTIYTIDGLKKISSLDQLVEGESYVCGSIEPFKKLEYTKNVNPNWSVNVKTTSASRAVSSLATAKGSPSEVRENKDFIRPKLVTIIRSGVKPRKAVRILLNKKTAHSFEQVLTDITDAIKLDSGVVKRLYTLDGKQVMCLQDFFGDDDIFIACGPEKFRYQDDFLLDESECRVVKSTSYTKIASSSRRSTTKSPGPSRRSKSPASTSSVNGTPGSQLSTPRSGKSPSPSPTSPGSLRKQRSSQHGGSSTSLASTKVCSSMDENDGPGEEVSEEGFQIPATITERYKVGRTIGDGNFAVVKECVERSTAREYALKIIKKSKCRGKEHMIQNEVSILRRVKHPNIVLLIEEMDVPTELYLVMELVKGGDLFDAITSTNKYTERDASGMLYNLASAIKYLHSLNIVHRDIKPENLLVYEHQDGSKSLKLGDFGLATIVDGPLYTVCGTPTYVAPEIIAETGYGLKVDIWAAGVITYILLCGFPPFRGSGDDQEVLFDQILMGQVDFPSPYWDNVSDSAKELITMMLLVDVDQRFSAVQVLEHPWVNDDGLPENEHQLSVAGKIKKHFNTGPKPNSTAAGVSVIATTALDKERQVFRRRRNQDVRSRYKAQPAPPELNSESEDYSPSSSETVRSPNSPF

## Nc1cc(C(F)(F)F)c(-c2cc(N3CCOCC3)nc(N3CCOCC3)n2)cn1 [Buparlisib]
Panel of 442 kinases [1]
  remaining activity at 1 µM: 100%
Panel of 442 kinases [1]; [9]
  remaining activity at 10 µM: 92%
Panel of 442 kinases [2]
  remaining activity at 1 µM: 55%
Panel of 442 kinases [2]; [9]
  remaining activity at 10 µM: 63%
Panel of 442 kinases [3]
  remaining activity at 1 µM: 100%
Panel of 442 kinases [3]; [9]
  remaining activity at 10 µM: 97%
Panel of 442 kinases [4]
  remaining activity at 1 µM: 88%
Panel of 442 kinases [4]; 10 µM, read-out: S6K1 (% of control at 10 µM)
  remaining activity at 10 µM: 99%
Panel of 442 kinases [5]
  remaining activity at 1 µM: 100%
Panel of 442 kinases [5]; [9]
  remaining activity at 10 µM: 100%
Panel of 442 kinases [6]
  remaining activity at 1 µM: 100%
Panel of 442 kinases [6]; [9]
  remaining activity at 10 µM: 100%
Panel of 442 kinases [7]
  remaining activity at 1 µM: 97%
Panel of 442 kinases [7]; [9]
  remaining activity at 10 µM: 100%
Panel of 442 kinases [8]
  remaining activity at 1 µM: 100%
Panel of 442 kinases [8]; 10 µM, read-out: PRKD2 (% of control at 10 µM)
  remaining activity at 10 µM: 100%

## COc1ncc(-c2ccc3nccc(-c4ccnnc4)c3c2)cc1NS(=O)(=O)c1ccc(F)cc1F [Omipalisib]
Panel of 442 kinases [1]
  remaining activity at 1 µM: 92%
Panel of 442 kinases [2]
  remaining activity at 1 µM: 100%
Panel of 442 kinases [3]
  remaining activity at 1 µM: 96%
Panel of 442 kinases [4]
  remaining activity at 1 µM: 100%
Panel of 442 kinases [5]
  remaining activity at 1 µM: 100%
Panel of 442 kinases [6]
  remaining activity at 1 µM: 100%
Panel of 442 kinases [7]
  remaining activity at 1 µM: 90%
Panel of 442 kinases [8]
  remaining activity at 1 µM: 100%

## FC(F)c1nc2ccccc2n1-c1nc(N2CCOCC2)nc(N2CCOCC2)n1 [ZSTK474, 2-(difluoromethyl)-1-[4,6-di(4-morpholinyl)-1,3,5-triazin-2-yl]-1H-benzimidazole]
Panel of 442 kinases [1]
  remaining activity at 1 µM: 97%
Panel of 442 kinases [2]
  remaining activity at 1 µM: 100%
Panel of 442 kinases [3]
  remaining activity at 1 µM: 100%
Panel of 442 kinases [4]
  remaining activity at 1 µM: 91%
Panel of 442 kinases [5]
  remaining activity at 1 µM: 100%
Panel of 442 kinases [6]
  remaining activity at 1 µM: 90%
Panel of 442 kinases [7]
  remaining activity at 1 µM: 100%
Panel of 442 kinases [8]
  remaining activity at 1 µM: 93%

## Cn1c(=O)n(-c2ccc(C(C)(C)C#N)cc2)c2c3cc(-c4cnc5ccccc5c4)ccc3ncc21 [Dactolisib, 2-methyl-2-[4-(3-methyl-2-oxo-8-quinolin-3-yl-2,3-dihydroimidazo[4,5-c]quinolin-1-yl)-phenyl] propionitrile]
Panel of 442 kinases [1]
  remaining activity at 1 µM: 100%
Panel of 442 kinases [2]
  remaining activity at 1 µM: 100%
Panel of 442 kinases [5]
  remaining activity at 1 µM: 89%
Panel of 442 kinases [6]
  remaining activity at 1 µM: 80%
Panel of 442 kinases [7]
  remaining activity at 1 µM: 100%
Panel of 442 kinases [8]
  remaining activity at 1 µM: 93%
